Assay results from US7220784B2, “Substituted stilbenes and their reactions” (priority 2000, dated 2007).
Where “and” joins values, the source holds several entries; their conditions need not be identical. Equal entries are not always repeated.

Tests used:
A2780 = experiment: Cytotoxicity/growth inhibition assay (MTT), A2780; assay type: cell-based; conditions: read-out: A2780 IC50
Procedure, shortened: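 MTT cytotoxicity/growth-inhibition assay in human cell lines including A2780, A2780/ADR, H460 and HUVEC.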

[1] = tested on: liver metastatic T50:80 tumours; experiment: Anti-vascular effects, histological examination of T50:80 tumours; assay type: in vivo, mice
Method: (§1) (2) Competition for the colchicine binding site on tubulin. The figure quoted represents the % of ^3H-colchicine bound following co-incubation of test compound and ^3H-cochicine with isolated tubulin. Where ester pro-drugs were used the experiments were carried out in the presence and absence of porcine liver esterase. • (3) Cytotoxicity/growth inhibition assay. This was carried out by the MTT assay. • (4) Permeability (shape-change) assay in endothelial cells. This was carried out using a method based on that of Watts et al. (Anticancer Res., 17, 71–75, (1997)). This involved the diffusion of a fluorescently labelled dextran through a barrier of endothelial cells (HUVEC) grown to confluence on a porous membrane. […] The anti-vascular effects of the agents were monitored by either positron emission tomography (PET) or by histologogical examination following treatment of mice bearing T50:80 murine breast tumours, or H460 human lung tumours. • (6) Anti-tumour efficacy of agents was determined in xenografts of H460 human lung cancer. Animals (n=5) were trated either with 5 daily injections and tumour size measured with time following treatment. • (7) The pharmacokinetic profile of agents was determined in mice following injection with drug. Blood was taken at various times following treatment and analysed by HPLC with UV detection. […]

[2] = tested on: H460 human lung xenograft; experiment: Tumour damage in H460 human lung xenograft grown subcutaneously; assay type: in vivo; conditions: 0.75×MTD, i.p., twenty four hours following injection
Method: The effect of compounds 97–64H and 97–96 (quinone compound) was tested on H460 human lung xenograft grown subcutaneously by injecting equitoxic doses of the compounds (0.75×MTD).

[3] = tested on: H460 human lung cancer xenografts; experiment: Anti-tumour efficacy in xenografts of H460 human lung cancer; assay type: in vivo, mice; conditions: H460 human lung cancer xenograft
Method: as §1

[4] = tested on: colchicine binding site on tubulin; experiment: Competition for the colchicine binding site on tubulin; note: test concentration or dose not given here

COc1ccc(C=Cc2cc(OC)c(OC)c(OC)c2)cc1F [Compound 97-64H]
IC50 (A2780): 3.66 nM | examination of tumours for vascular damage ([1]; 2/3 or 3/4 of MTD, 2 hr, 4 hr, 24 hr, 48 hr after administration): tumour necrosis, blocked vessels, infiltration with red blood cells | time by which vascular effects are seen ([1]; mouse, in vivo): ≤ 2 h | tumour damage [2]: extensive damage to the tumours | anti-tumour activity in vivo [3]: shows anti-tumour activity in vivo | Colchicine % Inhibition [4]: 79% and 70%
